# System: non-CF human tracheal gland (HTG) serous cells
# Test: Short-circuit current in human tracheal gland (HTG) serous cells
# Assay type: cell-based
# Conditions: T16Ainh-A01 pretreatment
# Experimental: FIG. 5A-B. Airway epithelial chloride secretion. FIG. 5A. Short-circuit current in CF HBE cells. Eact and UTP (100 μM) were added in control (left) and IL-4 (10 ng/ml, 24 h, middle) treated CF HBE cells. (right) Summary of Eact-induced, T16Ainh-A01-sensitive peak current (mean±S.E., n=6-8, * P<0.05). ENaC was inhibited by 10 μM amiloride. FIG. 5B. Eact (10 μM) and UTP (100 μM) induced CaCC Cl^− current measured in primary cultures of non-CF human tracheal gland (HTG) serous cells. (left and gmiddle) TMEM16A, CFTR and ENaC were inhibited by pretreatment with T16Ainh-A01, CFTRinh-172 and amiloride, respectively. Inset: TMEM16A immunoblot in whole cell homogenates of CF HBE and HTG cells. (right) Summary of UTP and Eact-induced peak current in the presence and absence of T16Ainh-A01 (mean±S.E., n=3, * P<0.05). […]
# Snapwell inserts containing TMEM16A-expressing FRT, HBE, CF HBE or HTG cells were mounted in Ussing chambers (Physiologic Instruments, San Diego, Calif.). […] Apical membrane current (for FRT cells) and short-circuit current were measured using an EVC4000 Multi-Channel V/I Clamp (World Precision Instruments, Sarasota, Fla.) and recorded using PowerLab/8sp (AD Instruments, Castle Hill, Australia). […]
smiles,measurement,value
"CCc1c(C)nc(SCC(=O)Nc2nc(-c3ccc(OC)cc3)cs2)[nH]c1=O [T16Ainh-A01, reference compound]",effect of pretreatment on UTP- and Eact-induced Cl^− current,largely abolished

# — patent publication US9790218B2, “Small molecule activators of calcium-activated chloride channels and methods of use” (The Regents of the University of California, priority 2011, dated 2017)
